Data on 8 compounds can be found in ChEMBL document CHEMBL1154798, “Aminocaprophenone- and pyrrolidine-type alkaloids from the leaves of Ficus septica” (J Nat Prod, 2009).

The subject of one assay is HeLa. The assay is described as follows: Cytotoxicity against human HeLa cells after 48 hrs by WST8 colorimetric assay. It counts as functional, cell-based. For orientation: Tetrazolium dyes change colour on reduction, which living cells bring about.
Assay [1] can be described thus: Cytotoxicity against human ACC-MESO1 cells after 48 hrs by WST8 colorimetric assay. In kind it is functional, cell-based. The note with it: ACC-MESO-1, 48 h.

The structures appear in SMILES notation.

What is called IC50 is the concentration needed to halve the response being measured.

As to `CC(=O)c1ccc(O)c(O[C@@H]2O[C@H](CO)[C@@H](O)[C@H](O)[C@H]2O)c1` [PUNGENIN], the IC50 (in the assay on HeLa; in assay [1]) was greater than 160 µM in each case.

For the compound `COc1cc2c3c(c4cc(OC)c(OC)cc4c2cc1OC)CN1CCC[C@@H]1C3` [TYLOPHORINE], the IC50 in the assay with HeLa came out at 3.1 µM; in assay [1], 12 µM.

`COc1ccc(C2=C(c3ccc(OC)c(OC)c3)CN3CCC[C@@H]3C2)cc1OC` [SEPTICINE]: the IC50 is 38 µM with HeLa and 63 µM in assay [1].

On to `COc1cc(C(=O)CC2CCC[N+]2(C)C)ccc1O` (stereo unspecified) [FICUSEPTAMINE C], for which the IC50 (in the assay on HeLa; in assay [1]) was greater than 160 µM in each case.

Consider `COc1cc(C(=O)CCCCCN(C)C)ccc1O` [FICUSEPTAMINE A], for which the values for the IC50 (in the assay on HeLa; in assay [1]) were 57 µM and 160 µM, respectively.

For `COc1ccc(C(=O)CCCCCN(C)C)cc1O` [FICUSEPTAMINE B], the IC50 in the assay on HeLa was determined as 23 µM; in assay [1] it was 72 µM.

On to `COc1cc(C(=O)CC2CCCN2C)ccc1O` (stereo unspecified) [PHYLLOSTERONE], for which the IC50 (in the assay with HeLa; in assay [1]) was greater than 160 µM throughout.

With `COc1cc2c3c(c4ccc(OC)c(OC)c4c2cc1OC)[C@H](O)[C@@H]1CCC[N+]1([O-])C3` (stereo partly specified), the IC50 in the assay on HeLa amounted to 7.1 µM; in assay [1] it was 28 µM.
